Results taken from PubChem BioAssay (NCI).
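The concentration for 50% growth inhibition is given as GI50. TGI marks complete inhibition of growth.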

Key:
Assay in all cases: NCI-60 cell line screen, 384-well format
NCI-H522 lung = system: NCI-H522 lung
DU-145 prostate = system: DU-145 prostate
UACC-257 melanoma = system: UACC-257 melanoma
PC-3 prostate = system: PC-3 prostate
MDA-MB-231 breast = system: MDA-MB-231 breast
HOP-62 NSCLC = system: HOP-62 NSCLC
SF-295 CNS = system: SF-295 CNS
OVCAR-4 ovarian = system: OVCAR-4 ovarian
HS 578T breast = system: HS 578T breast
BT-549 breast = system: BT-549 breast
786-0 renal = system: 786-0 renal
SF-268 CNS = system: SF-268 CNS
NCI-H226 lung = system: NCI-H226 lung
SW-620 colon = system: SW-620 colon
NCI/ADR-RES ovarian = system: NCI/ADR-RES ovarian
K-562 leukemia = system: K-562 leukemia
SK-MEL-28 melanoma = system: SK-MEL-28 melanoma
NCI-H23 lung = system: NCI-H23 lung
HCT-116 colon = system: HCT-116 colon
HL-60(TB) leukemia = system: HL-60(TB) leukemia
COLO 205 colon = system: COLO 205 colon
UO-31 renal = system: UO-31 renal
LOX IMVI melanoma = system: LOX IMVI melanoma
SNB-75 CNS = system: SNB-75 CNS
T-47D breast = system: T-47D breast
A498 renal = system: A498 renal
A549 NSCLC = system: A549 NSCLC
HOP-92 NSCLC = system: HOP-92 NSCLC
SF-539 CNS = system: SF-539 CNS
RXF 393 renal = system: RXF 393 renal
HCT-15 colon = system: HCT-15 colon
U251 glioblastoma = system: U251 glioblastoma
MOLT-4 leukemia = system: MOLT-4 leukemia
OVCAR-5 ovarian = system: OVCAR-5 ovarian
TK-10 renal = system: TK-10 renal
NCI-H460 NSCLC = system: NCI-H460 NSCLC
MDA-MB-435 melanoma = system: MDA-MB-435 melanoma
MALME-3M melanoma = system: MALME-3M melanoma
SNB-19 CNS = system: SNB-19 CNS
MDA-MB-468 breast = system: MDA-MB-468 breast
MCF7 breast = system: MCF7 breast
IGROV1 ovarian = system: IGROV1 ovarian
HCC-2998 colon = system: HCC-2998 colon
M14 melanoma = system: M14 melanoma
SK-OV-3 ovarian = system: SK-OV-3 ovarian
HT29 colon = system: HT29 colon
CCRF-CEM leukemia = system: CCRF-CEM leukemia
SN12C renal = system: SN12C renal
KM12 colon = system: KM12 colon
SK-MEL-5 melanoma = system: SK-MEL-5 melanoma
OVCAR-3 ovarian = system: OVCAR-3 ovarian
EKVX NSCLC = system: EKVX NSCLC
ACHN renal = system: ACHN renal
RPMI-8226 leukemia = system: RPMI-8226 leukemia
OVCAR-8 ovarian = system: OVCAR-8 ovarian
CAKI-1 renal = system: CAKI-1 renal
SR leukemia = system: SR leukemia
NCI-H322M lung = system: NCI-H322M lung

`CN1CCC(CNc2ccc3ncc(-c4cccc(OC(F)(F)F)c4)n3n2)CC1` showed a GI50 (NCI-H522 lung) of 1560 nM, a TGI (NCI-H522 lung) of 2900 nM and a GI50 (DU-145 prostate) of 2050 nM. The TGI (DU-145 prostate) was 4510 nM, the GI50 (UACC-257 melanoma) was 1620 nM and the TGI (UACC-257 melanoma) was 2980 nM. For the same compound, the GI50 (PC-3 prostate) was 1260 nM, the TGI (PC-3 prostate) was 2620 nM and the GI50 (MDA-MB-231 breast) was 1610 nM. For the same compound, the TGI (MDA-MB-231 breast) was 2970 nM, the GI50 (HOP-62 NSCLC) was 1620 nM and the TGI (HOP-62 NSCLC) was 3000 nM. For the same compound, the GI50 (SF-295 CNS) was 1450 nM, the TGI (SF-295 CNS) was 2780 nM and the GI50 (OVCAR-4 ovarian) was 1740 nM. For the same compound, the TGI (OVCAR-4 ovarian) was 3190 nM, the GI50 (HS 578T breast) was 1590 nM and the TGI (HS 578T breast) was 2950 nM. It also gave a GI50 (BT-549 breast) of 1400 nM, a TGI (BT-549 breast) of 2710 nM and a GI50 ([…]-0 renal) of 1660 nM. It also gave a TGI (786-0 renal) of 3050 nM, a GI50 (SF-268 CNS) of 1650 nM and a TGI (SF-268 CNS) of 3040 nM. It also gave a GI50 (NCI-H226 lung) of 1480 nM, a TGI (NCI-H226 lung) of 2820 nM and a GI50 (SW-620 colon) of 1600 nM. For the same compound, the TGI (SW-620 colon) was 2980 nM, the GI50 (NCI/ADR-RES ovarian) was 1620 nM and the TGI (NCI/ADR-RES ovarian) was 3020 nM. It also gave a GI50 (K-562 leukemia) of 1630 nM, a TGI (K-562 leukemia) of 3040 nM and a GI50 (SK-MEL-28 melanoma) of 1750 nM. The TGI (SK-MEL-28 melanoma) was 3130 nM, the GI50 (NCI-H23 lung) was 1540 nM and the TGI (NCI-H23 lung) was 2940 nM. The GI50 (HCT-116 colon) was 1590 nM, the TGI (HCT-116 colon) was 2980 nM and the GI50 (HL-60(TB) leukemia) was 1250 nM. It also gave a TGI (HL-60(TB) leukemia) of 2530 nM, a GI50 (COLO 205 colon) of 1790 nM and a TGI (COLO 205 colon) of 3190 nM. It also gave a GI50 (UO-31 renal) of 1660 nM, a TGI (UO-31 renal) of 3040 nM and a GI50 (LOX IMVI melanoma) of 1740 nM. For the same compound, the TGI (LOX IMVI melanoma) was 3140 nM, the GI50 (SNB-75 CNS) was 1500 nM and the TGI (SNB-75 CNS) was 2860 nM. The GI50 (T-47D breast) was 1770 nM, the TGI (T-47D breast) was 3170 nM and the GI50 (A498 renal) was 1420 nM. The TGI (A498 renal) was 2730 nM, the GI50 (A549 NSCLC) was 1720 nM and the TGI (A549 NSCLC) was 3120 nM. It also gave a GI50 (HOP-92 NSCLC) of 1650 nM, a TGI (HOP-92 NSCLC) of 3020 nM and a GI50 (SF-539 CNS) of 1530 nM. The TGI (SF-539 CNS) was 2870 nM, the GI50 (RXF 393 renal) was 1350 nM and the TGI (RXF 393 renal) was 2640 nM. It also gave a GI50 (HCT-15 colon) of 1580 nM, a TGI (HCT-15 colon) of 2970 nM and a GI50 (U251 glioblastoma) of 1810 nM. It also gave a TGI (U251 glioblastoma) of 3220 nM, a GI50 (MOLT-4 leukemia) of 1310 nM and a TGI (MOLT-4 leukemia) of 2590 nM. It also gave a GI50 (OVCAR-5 ovarian) of 1610 nM, a TGI (OVCAR-5 ovarian) of 3210 nM and a GI50 (TK-10 renal) of 1700 nM. It also gave a TGI (TK-10 renal) of 3110 nM, a GI50 (NCI-H460 NSCLC) of 1710 nM and a TGI (NCI-H460 NSCLC) of 3150 nM. The GI50 (MDA-MB-435 melanoma) was 1710 nM, the TGI (MDA-MB-435 melanoma) was 3100 nM and the GI50 (MALME-3M melanoma) was 1560 nM. It also gave a TGI (MALME-3M melanoma) of 2910 nM, a GI50 (SNB-19 CNS) of 1740 nM and a TGI (SNB-19 CNS) of 3170 nM. It also gave a GI50 (MDA-MB-468 breast) of 1100 nM, a TGI (MDA-MB-468 breast) of 2310 nM and a GI50 (MCF7 breast) of 1450 nM. The TGI (MCF7 breast) was 2800 nM, the GI50 (IGROV1 ovarian) was 1550 nM and the TGI (IGROV1 ovarian) was 2940 nM. It also gave a GI50 (HCC-2998 colon) of 1430 nM, a TGI (HCC-2998 colon) of 2760 nM and a GI50 (M14 melanoma) of 1490 nM. It also gave a TGI (M14 melanoma) of 2820 nM, a GI50 (SK-OV-3 ovarian) of 1670 nM and a TGI (SK-OV-3 ovarian) of 3050 nM. The GI50 (HT29 colon) was 1660 nM, the TGI (HT29 colon) was 3090 nM and the GI50 (CCRF-CEM leukemia) was 1800 nM. For the same compound, the TGI (CCRF-CEM leukemia) was 3210 nM, the GI50 (SN12C renal) was 1550 nM and the TGI (SN12C renal) was 2910 nM. It also gave a GI50 (KM12 colon) of 375 nM, a TGI (KM12 colon) of 1420 nM and a GI50 (SK-MEL-5 melanoma) of 1120 nM. For the same compound, the TGI (SK-MEL-5 melanoma) was 2330 nM, the GI50 (OVCAR-3 ovarian) was 1620 nM and the TGI (OVCAR-3 ovarian) was 3010 nM. The GI50 (EKVX NSCLC) was 1480 nM, the TGI (EKVX NSCLC) was 2900 nM and the GI50 (ACHN renal) was 1590 nM. The TGI (ACHN renal) was 2960 nM, the GI50 (RPMI-8226 leukemia) was 1370 nM and the TGI (RPMI-8226 leukemia) was 2670 nM. The GI50 (OVCAR-8 ovarian) was 1610 nM, the TGI (OVCAR-8 ovarian) was 2990 nM and the GI50 (CAKI-1 renal) was 1380 nM. The TGI (CAKI-1 renal) was 2710 nM, the GI50 (SR leukemia) was 1250 nM and the TGI (SR leukemia) was 2520 nM. It also gave a GI50 (NCI-H322M lung) of 1920 nM and a TGI (NCI-H322M lung) of 3800 nM.
